For series [1] the following is noted: rcm bond, 1,2-dichloroethane, 60.0 °C, 16.0 h.
A further series has as its target T1, BACE1 enzyme (Homo sapiens, UniProt P56817).
T1 construct: endogenous in cells; washed 48,000 x g membrane pellet / cell homogenate
Kind of series: Radioligand displacement assay with a radiolabeled BACE inhibitor. The class given is binding. The settings on record: HEK293-9B.A1 cell homogenate overexpressing BACE1, 1 nM radioligand, pH 5.0, 1.5 hr at 25° C.; read-out: Activity Rating (activity based on IC50 values). The text has this:
There are a number of methods by which inhibitors of the BACE enzyme can be identified experimentally. The enzyme can be obtained from membrane samples from natural tissues or cultured cells or can be expressed recombinantly in a host cell by well known methods of molecular biology. The whole enzyme or a portion thereof can be expressed, for example, in bacterial, insect or mammalian cells to obtain a catalytically active enzyme species. The enzymatic activity and/or ligand binding capability of the enzyme can be assessed within these membrane samples, or the enzyme can be purified to varying extents. As an illustrative example, the nucleic acid sequence encoding the pro and catalytic domains of human BACE can be appended on the 5′ end with an untranslated and signal sequence from the gene for acetylcholinesterase, and on the 3′ end with a sequence encoding a poly-histidine tag. This cDNA can then be expressed in Drosophila melanogaster S2 cells in which the signal and pro sequences of the transcribed/translated protein are removed by cellular proteases and the catalytic domain, appended by a C-terminal poly-histidine tag, is secreted out into the cellular medium. The enzyme can then be purified from the culture medium by nickel affinity chromatography by methods well known to those trained in the art [Mallender, W. et al., “Characterization of recombinant, soluble beta-secretase from an insect cell expression system.” Mol. Pharmacol. 2001, 59: 619-626]. Similar strategies for expressing and purifying various forms of BACE in bacterial, mammalian and other cell types would be known to one skilled in the art. A preferred method for determining the potency of a test compound in binding to the BACE enzyme is by monitoring the displacement of a suitable radioligand.
Radioligand displacement assays with a radiolabeled BACE inhibitor (WO 2004 013098, compound 3, where the methoxy group is substituted for C(^3H)3) were carried out using standard methods (Keen, M. (1999) in Receptor Binding Techniques (Walker, J. M. ed) p. 106 Humana Press, Totowa, N.J.). The HEK293-9B.A1 cell line, which overexpresses the BACE1 enzyme, was derived from HEK293 cells (Simmons, N. L. (1990) A cultured human renal epithelioid cell line responsive to vasoactive intestinal peptide. Exp. Physiol. 75:309-19.) by RAGE™ (Harrington, J. J. et al. (2001) Creation of genome-wide protein expression libraries using random activation of gene expression. Nat. Biotechnol. 19:440-5.; U.S. Pat. Nos. 6,410,266 and 6,361,972). T225 flask cultures of HEK293-9B.A1 were grown to 80% confluency in DMEM supplemented with 2 mM L-glutamine, 10 μg/mL penicillin, 10 μg/mL streptomycin, 3 μg/mL puromycin, 100 nM methotrexate, and 10% fetal bovine serum (Invitrogen, Carlsbad, Calif.), harvested, and resuspended at 2×10^8 cells per 10 mL of lysis buffer consisting of 50 mM HEPES pH 7.0 containing a protease inhibitor cocktail of AEBSF 104 μM, aprotinin 80 nM, leupeptin 2 μM, bestatin 4 μM, pepstatin A 1.5 μM, and E-64 1.4 μM (0.1% of protease inhibitor cocktail P8340, Sigma-Aldrich, St. Louis, Mo.) at 4° C. The resuspended cells were homogenized using a Polytron (Brinkman, Westbury, N.Y.) at setting 6 for 10 sec., then centrifuged at 48,000×g for 10 min. The resulting pellet was washed by repeating the resuspension, homogenization and centrifugation steps. The final pellet was resuspended in buffer at 4° C. to yield a total protein concentration of 5 mg/mL, then aliquots were frozen in liquid nitrogen for further storage at −70° C. Immediately before carrying out a binding assay, an aliquot of cell homogenate was thawed and diluted to a concentration of 100 μg/mL in assay buffer consisting of 50 mM HEPES pH 5.0 and 0.1% CHAPSO. […]
(In a radioligand displacement assay an active substance lowers the binding of a labelled ligand.)

Where two headings read alike, the source gives them in different places. A value given as a limit tells only on which side of the number the result lay.

T1 sequence (P56817 46-501): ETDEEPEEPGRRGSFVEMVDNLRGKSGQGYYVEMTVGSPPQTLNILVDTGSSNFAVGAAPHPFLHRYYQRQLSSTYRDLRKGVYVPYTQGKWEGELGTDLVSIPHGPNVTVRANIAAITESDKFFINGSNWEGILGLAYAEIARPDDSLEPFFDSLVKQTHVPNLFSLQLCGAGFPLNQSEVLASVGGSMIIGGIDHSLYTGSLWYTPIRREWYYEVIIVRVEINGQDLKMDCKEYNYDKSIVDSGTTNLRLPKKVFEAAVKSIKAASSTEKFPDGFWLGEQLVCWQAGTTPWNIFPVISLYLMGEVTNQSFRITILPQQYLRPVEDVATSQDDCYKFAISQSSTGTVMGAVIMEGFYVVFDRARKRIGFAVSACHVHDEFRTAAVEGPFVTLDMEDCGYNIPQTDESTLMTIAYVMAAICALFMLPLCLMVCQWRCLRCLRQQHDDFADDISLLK

Regarding `CCCCCS(=O)(=O)N(C)[C@H]1CC=CCCCc2ccc(C(F)(F)F)cc2CNC[C@@H](O)[C@H](Cc2cc(F)cc(F)c2)NC1=O` [Example 40, N-((4R,5S,8S)-5-(3,5-difluorobenzyl)-4-hydroxy-17-(trifluoromethyl)-7-oxo-1,2,3,4,5,6,7,8,9,12,13,14-dodecahydrobenzo[g][1,5]diazacyclohexadecin-8-yl)-N-methylpentane-1-sulfonamide], in series [1] (from C=CCCCc1ccc(C(F)(F)F)cc1CNC[C@@H](O)[C@H](Cc1cc(F)cc(F)c1)NC(=O)[C@H](CC=C)N(C)S(=O)(=O)CCCCC, 16-membered ring, Hoveyda-Grubbs (19 mol%), 6.5 mM), the ring closure, isolated yield turned out to be 32%. Further, the IC50 at BACE1 enzyme is 10 to 500 nM.
With `CC(C)C[C@@H]1COCC=CCC[C@H](N(C)S(=O)(=O)CCC(F)(F)F)C(=O)N[C@@H](Cc2cc(F)cc(F)c2)[C@H](O)CN1` [Example 42, N-((3R,6R,7S,10S)-7-(3,5-difluorobenzyl)-6-hydroxy-3-isobutyl-9-oxo-1-oxa-4,8-diazacyclopentadec-13-en-10-yl)-3,3,3-trifluoro-N-methylpropane-1-sulfonamide], the ring closure, isolated yield in series [1] (from C=CCC[C@@H](C(=O)N[C@@H](Cc1cc(F)cc(F)c1)[C@H](O)CN[C@@H](COCC=C)CC(C)C)N(C)S(=O)(=O)CCC(F)(F)F, 15-membered ring, Hoveyda-Grubbs (16 mol%), 19.0 mM) stood at 19%. The IC50 on BACE1 enzyme was more than 500 nM.

What is called IC50 is the concentration needed to halve the response being measured.

For the origin of these results see patent US7772221B2, “Diaminopropane derived macrocycles as inhibitors of β amyloid production” (Bristol-Meyers Squibb Company, priority 2007, dated 2010).
